“And” between values parts separate entries of the source, which are not always exact repeats. Equal values may be shown once. “Also recorded” adds a separate entry of the source. Where a SMILES comes first, the peptide text is derived from it. [ ]: non-standard residue; d: D form. Hyp = O=C(O)[C@@H]1C[C@@H](O)CN1
How the values were obtained:
TNF-alpha = experiment: Example 8 main study Luminex, LPS hPBMCs: TNF-alpha; assay type: cell-based, human; details: for TNF-alpha Concentration: individual replicates; for TNF-alpha Concentration (pg/ml), Mean: mean of replicates; for LPS-induced TNF-α (in words): at as low as 5 μM, LPS 5 ug/mL 24 hrs
Description: (§1) Human PBMCs were pretreated with YY-101, YDE-011, YDE-043 or reference compound; Xiidra® at various concentration (ranging from […] to 500 nM) for 2 h before stimulation. An equal volume of 0.5% DMSO was used as a vehicle control. Then, the cells were treated with LPS at 5 ug/ml, which was selected based on the pilot study. The supernatants from treated cells were harvested at 24 h and placed in a 96 well for Luminex cytokine & chemokine profiling using a Luminex 200 multiplex assay (Luminex; R&D system, USA).
(§2) The main study arm with triplicate wells per group in a 24-well plate: • 1. Blank • 2. PBMC: 0.5% DMSO • 3. PBMC+LPS (5 ug/ml) • 4. PBMC+YY-101 500 nM • 5. PBMC+YY-101 50 nM • 6. PBMC+YY-101 5 nM • 7. PBMC+YY-101 0.5 nM • 8. PBMC+LPS (5 ug/ml)+Xiidra® 500 nM • 9. PBMC+LPS (5 ug/ml)+Xiidra® 50 nM • 10. PBMC+LPS (5 ug/ml)+Xiidra® 5 nM • 11. PBMC+LPS (5 ug/ml)+Xiidra® 0.5 nM • 12. PBMC+LPS (5 ug/ml)+Xiidra® 0.05 nM • 13. PBMC+LPS (5 ug/ml)+Xiidra® 0.005 nM • 14. PBMC+LPS (5 ug/ml)+YY-101 500 nM • 15. PBMC+LPS (5 ug/ml)+YY-101 50 nM • 16. PBMC+LPS (5 ug/ml)+YY-101 5 nM • 17. PBMC+LPS (5 ug/ml)+YY-101 0.5 nM • 18. PBMC+LPS (5 ug/ml)+YY-101 0.05 nM • 19. PBMC+LPS (5 ug/ml)+YY-101 0.005 nM • 20. PBMC+LPS (5 ug/ml)+YDE-011 500 nM • 21. PBMC+LPS (5 ug/ml)+YDE-011 50 nM • 22. PBMC+LPS (5 ug/ml)+YDE-011 5 nM • 23. PBMC+LPS (5 ug/ml)+YDE-011 0.5 nM • 24. PBMC+LPS (5 ug/ml)+YDE-011 0.05 nM • 25. PBMC+LPS (5 ug/ml)+YDE-011 0.005 nM • 26. PBMC+LPS (5 ug/ml)+YDE-043 500 nM • 27. PBMC+LPS (5 ug/ml)+YDE-043 50 nM • 28. PBMC+LPS (5 ug/ml)+YDE-043 5 nM • 29. PBMC+LPS (5 ug/ml)+YDE-043 0.5 nM • 30. PBMC+LPS (5 ug/ml)+YDE-043 0.05 nM • 31. PBMC+LPS (5 ug/ml)+YDE-043 0.005 nM
(§3) Multiplex assay was used to measure 30 cytokines and chemokines. The 1:200 diluted cell supernatant and serial dilution of the standard were dispensed into a 96 well plate at 50 ul/well. Then, the pre-mixed cocktail of antibody-coated magnetic beads was dispensed at 50 ul/well and incubated at room temperature for 2 h in a horizontal orbital microplate shaker at 800±500 rpm. The beads were washed using a magnetic device to prevent loss. The biotin-antibody was dispensed in 50 ul of each well and incubated at room temperature for 1 h in a shaker at 800±500 rpm. After washing, streptavidin-PE was added at 50 ul/well and incubated at room temperature for 30 min in a shaker under the same conditions. Finally, after washing, wash buffer (100 ul/well) was added to the plate and incubated in a shaker for 2 min. The Luminex™ 200 setting were set according to the manufacturer's protocol. The data was calculated with a standard five-parameter logistic nonlinear regression analysis of the data (xPonent software 4.2, USA). Results were presented as concentration (ng/ml or pg/ml).

[1] = tested on: cytokine and chemokine release in human peripheral blood mononuclear cells (hPBMCs); experiment: Luminex multiplex, 30 cytokines and chemokines, LPS stimulated hPBMCs, main study (Example 8, Study 1), whole panel; assay type: cell-based; details: for LPS-induced cytokine/chemokine levels, whole panel (in words): LPS 5 ug/mL 24 hrs, up to 500 nM
Description: Human PBMCs frozen in a cryopreserve was thawed, washed with Hank's Balanced Salt Solution containing 10% Fetal bovine serum, and seeded onto a 24-well plate at a density of 1×10^6 cells/well with culture RPMI media containing 10% Fetal bovine serum in growth media in a 24 well plate for 12, 24, and 48 hrs and maintained at 37° C. in an atmosphere of 95% air and 5% CO2.
as §1, §2
as §3, with “After washing, streptavidin-PE was added at 50 ul/well and incubated at room temperature for 30 min in a shaker under the same conditions. Finally, after washing, wash buffer (100 ul/well) was added to the plate and incubated in a shaker for 2 min. The Luminex™ 200 setting were set according to the manufacturer's protocol.” left out, “Results were presented as concentration (ng/ml or pg/ml).” left out

[2] = PBMC + LPS(5 ug/ml) + test article 0.005 nM
[3] = PBMC + LPS(5 ug/ml) + test article 0.05 nM
[4] = PBMC + LPS(5 ug/ml) + test article 0.5 nM
[5] = PBMC + LPS(5 ug/ml) + test article 5 nM
[6] = PBMC + LPS(5 ug/ml) + test article 50 nM
[7] = PBMC + LPS(5 ug/ml) + test article 500 nM

Compound: CC(C)C[C@H](NC(=O)CNC(=O)[C@H](CC(C)C)NC(=O)[C@H](CCC(N)=O)NC(=O)CNC(=O)[C@@H]1C[C@@H](O)CN1)C(=O)N[C@@H](C)C(=O)NCC(=O)N1CCC[C@H]1C(=O)N[C@@H](CCCCN)C(=O)O [YDE-011] (H-[Hyp]GQLGLAGPK-OH)
- TNF-alpha Concentration (TNF-alpha; [2]): 2116.1 pg/mL and 1988.8 pg/mL and 1861.0 pg/mL
- TNF-alpha Concentration (pg/ml), Mean (TNF-alpha; [2]): 1988.6 pg/mL
- TNF-alpha Concentration (TNF-alpha; [3]): 1861.0 pg/ml and 2052.5 pg/ml (2×)
- TNF-alpha Concentration (pg/ml), Mean (TNF-alpha; [3]): 1988.7 pg/mL
- TNF-alpha Concentration (TNF-alpha; [4]): 1344.6 pg/mL and 1988.8 pg/mL and 1797.0 pg/mL
- TNF-alpha Concentration (pg/ml), Mean (TNF-alpha; [4]): 1710.1 pg/mL
- TNF-alpha Concentration (TNF-alpha; [5]): 749.3 pg/mL and 1409.7 pg/mL and 1668.5 pg/mL
- TNF-alpha Concentration (pg/ml), Mean (TNF-alpha; [5]): 1275.8 pg/mL
- TNF-alpha Concentration (TNF-alpha; [6]): 1732.8 pg/mL and 2179.5 pg/mL and 442.1 pg/mL
- TNF-alpha Concentration (pg/ml), Mean (TNF-alpha; [6]): 1451.5 pg/mL
- TNF-alpha Concentration (TNF-alpha; [7]): 2116.1 pg/mL and 647.8 pg/mL and 1246.7 pg/mL
- TNF-alpha Concentration (pg/ml), Mean (TNF-alpha; [7]): 1336.9 pg/mL
- LPS-induced TNF-α (in words) (TNF-alpha): significantly reduced
- LPS-induced cytokine/chemokine levels, whole panel (in words) [1]: potently and significantly reduced pro-inflammatory cytokine/chemokine production

Compound: CC(C)C[C@H](NC(=O)[C@H](CCC(N)=O)NC(=O)CNC(=O)[C@@H]1C[C@@H](O)CN1)C(=O)NCC(=O)O [YDE-043] (H-[Hyp]GQLG-OH; N-terminus and C-terminus assumed)
- TNF-alpha Concentration (TNF-alpha; [2]): 2052.5 pg/mL and 1797.0 pg/mL and 2306.2 pg/mL
- TNF-alpha Concentration (pg/ml), Mean (TNF-alpha; [2]): 2051.9 pg/mL
- TNF-alpha Concentration (TNF-alpha; [3]): 1181.1 pg/mL and 1539.4 pg/mL and 1474.6 pg/mL
- TNF-alpha Concentration (pg/ml), Mean (TNF-alpha; [3]): 1398.4 pg/mL
- TNF-alpha Concentration (TNF-alpha; [4]): 1764.9 pg/ml and 1409.7 pg/ml (2×)
- TNF-alpha Concentration (pg/ml), Mean (TNF-alpha; [4]): 1528.1 pg/mL
- TNF-alpha Concentration (TNF-alpha; [5]): 1442.2 pg/mL and 2052.5 pg/mL and 1474.6 pg/mL
- TNF-alpha Concentration (pg/ml), Mean (TNF-alpha; [5]): 1656.4 pg/mL
- TNF-alpha Concentration (TNF-alpha; [6]): 2020.6 pg/mL and 1797.0 pg/mL and 1474.6 pg/mL
- TNF-alpha Concentration (pg/ml), Mean (TNF-alpha; [6]): 1764.1 pg/mL
- TNF-alpha Concentration (TNF-alpha; [7]): 1604.0 pg/mL and 1115.3 pg/mL and 1344.6 pg/mL
- TNF-alpha Concentration (pg/ml), Mean (TNF-alpha; [7]): 1354.6 pg/mL
- LPS-induced TNF-α (in words) (TNF-alpha): significantly reduced
- LPS-induced cytokine/chemokine levels, whole panel (in words) [1]: more effectively lowered cytokine and chemokine production; also recorded: potently and significantly reduced pro-inflammatory cytokine/chemokine production

Compound: CC(C)C[C@H](NC(=O)CNC(=O)[C@H](CC(=O)O)NC(=O)[C@H](CCC(N)=O)NC(=O)CNC(=O)[C@@H]1C[C@@H](O)CN1)C(=O)N[C@@H](C)C(=O)NCC(=O)N1CCC[C@H]1C(=O)N[C@@H](CCCCN)C(=O)O [YY-101] (H-[Hyp]GQDGLAGPK-OH; N-terminus and C-terminus assumed)
- TNF-alpha Concentration (TNF-alpha; [2]): 2871.6 pg/mL and 2369.4 pg/mL and 2179.5 pg/mL
- TNF-alpha Concentration (pg/ml), Mean (TNF-alpha; [2]): 2473.5 pg/mL
- TNF-alpha Concentration (TNF-alpha; [3]): 1797.0 pg/mL and 2621.2 pg/mL and 2242.9 pg/mL
- TNF-alpha Concentration (pg/ml), Mean (TNF-alpha; [3]): 2220.4 pg/mL
- TNF-alpha Concentration (TNF-alpha; [4]): 2432.5 pg/mL and 2242.9 pg/mL and 2116.1 pg/mL
- TNF-alpha Concentration (pg/ml), Mean (TNF-alpha; [4]): 2263.8 pg/mL
- TNF-alpha Concentration (TNF-alpha; [5]): 1988.8 pg/mL and 1925.0 pg/mL and 2242.9 pg/mL
- TNF-alpha Concentration (pg/ml), Mean (TNF-alpha; [5]): 2052.2 pg/mL
- TNF-alpha Concentration (TNF-alpha; [6]): 1732.8 pg/mL and 1668.5 pg/mL and 1988.8 pg/mL
- TNF-alpha Concentration (pg/ml), Mean (TNF-alpha; [6]): 1796.7 pg/mL
- TNF-alpha Concentration (TNF-alpha; [7]): 2179.5 pg/mL and 1988.8 pg/mL and 1797.0 pg/mL
- TNF-alpha Concentration (pg/ml), Mean (TNF-alpha; [7]): 1988.4 pg/mL
- TNF-alpha Concentration (TNF-alpha; PBMC + test article 0.5 nM, no LPS, dilution 200): <7.70 pg/mL
- TNF-alpha Concentration (TNF-alpha; PBMC + test article 5 nM, no LPS, dilution 200): <7.70 pg/mL
- TNF-alpha Concentration (TNF-alpha; PBMC + test article 0.05 uM, no LPS, dilution 200): <7.70 pg/mL
- TNF-alpha Concentration (TNF-alpha; PBMC + test article 50 nM, no LPS, dilution 200): <7.70 pg/mL
- TNF-alpha Concentration (TNF-alpha; PBMC + test article 500 nM, no LPS, dilution 200): <7.70 pg/mL
- LPS-induced TNF-α (in words) (TNF-alpha): significantly reduced
- LPS-induced cytokine/chemokine levels, whole panel (in words) [1]: potently and significantly reduced pro-inflammatory cytokine/chemokine production
- basal levels of cytokine production (in words) ([1]; no LPS): didn't affect the basal levels of cytokine production
